{
  "source": "paper PMC12682947",
  "about": "“Identification of New KCNT1‐Epilepsy Drugs by In Silico, Cell, and Drosophila Modeling” (Annals of Neurology, 2025)",
  "key": {"[1]": {"conditions": "cited from earlier work"}, "[2]": {"experiment": "Plasma pharmacokinetics and brain uptake of antrafenine in mice (LC-MS)", "type": "in vivo, male C57BL/6 mice", "protocol": "Plasma pharmacokinetics and brain uptake of antrafenine was analyzed in male C57BL/6 mice. Antrafenine was administered intravenously at 1 mg/kg and 3 mg/kg into the tail vein and plasma was collected over a 24‐hour sampling period (n = 3 mice/time point). Following administration, the brain was harvested at 4 times over 24 hours and snap frozen in dry ice and subsequently stored frozen (−80°C) until analysis. The concentration of antrafenine was determined using liquid chromatography–mass spectrometry. The in vivo study was conducted using established procedures in accordance with the Australian Code of Practice for the Care and Use of Animals for Scientific Purposes, and the study protocols were reviewed and approved by the Monash Institute of Pharmaceutical Sciences Animal Ethics Committee. See Supporting Information for detailed methods and results. […]\nPlasma pharmacokinetics and brain uptake of antrafenine was analyzed in male C57BL/6 mice by the Monash University Centre for Drug Candidate Optimisation. Antrafenine was administered intravenously at 1 mg/kg and 3 mg/kg into the tail vein and plasma was collected over a 24 h sampling period (n=3 mice/time point). Following administration, brain was harvested at four times over 24 hours and snap frozen in dry ice and subsequently stored frozen (-80°C) until analysis. The concentration of antrafenine was determined using liquid chromatography–mass spectrometry (LC-MS).\n4 hrs post IV administration of 3 mg/kg Antrafenine was taken as a representative time to compare plasma and brain concentrations. At 4 hrs we determined a mean plasma concentration of 47.5 nM (+5.9 nM SD) and a mean brain concentration of 13.9 nM (+3 nM SD). […]\nPlasma pharmacokinetics and brain uptake of antrafenine\nThe systemic exposure of antrafenine was studied in non-fasted male C57BL/6 mice weighing 19.8 – 24.6 g. Mice had access to food and water ad libitum throughout the pre- and post-dose period. Antrafenine hydrochloride Mw 588.554 (Lot#10-KSS-51-2) was obtained from Toronto Research Chemicals/LGC Standards, Canada, and was dissolved in vehicle; 5% (v/v) DMSO, 25% (v/v) 40% (w/v) Trappsol in 0.9% (w/v) saline, 70% (v/v) 40 mM citrate buffered saline at pH 3.5 at concentrations of 0.5 mg/mL and 1.5 mg/mL.\nOn the day of dosing, each formulation was prepared by dissolving solid antrafenine in DMSO using vortexing and sonication prior to addition of 40% (w/v) Trappsol in 0.9% (w/v) saline followed by 40 mM citrate-buffered saline at pH 3.5. Each sample was vortexed to create a colorless / light yellow solution and was filtered through a 0.22 µm syringe filter prior to dosing.\nAdministration of antrafenine was performed by a single bolus IV injection into the tail vein of C57BL/6 male mice using a 1ml syringe with a 25G x 1” needle at a volume of 2 mL/kg. Each […]\nformulation was dosed to mice by bolus injection into the lateral tail vein (2 mL/kg) and blood samples were collected at 1, 2, 5, 15 and 30 min; 1, 2, 4, 7.5 and 24 h post-dose (n=3 mice per time point for each formulation). A maximum of three blood samples were obtained from each mouse, with plasma samples being taken via submandibular bleed (approximately 120 μL).\nBlood was collected into polypropylene Eppendorf tubes containing heparin as anticoagulant and stabilization cocktail (Complete® (containing a protease inhibitor cocktail and EDTA) and potassium fluoride) to minimize the potential for ex vivo compound degradation in blood/plasma samples. Once collected, blood samples were centrifuged immediately, supernatant plasma was removed, snap frozen in dry ice and stored at -80°C until analysis by LC-MS. In addition, at the 15 min, 1, 4 and 24 h post-dose time points, the whole brain was rapidly removed from the carcass soon after the blood collection. The whole brains were blotted to remove excess blood, placed into pre-weighed polypropylene vials and weighed. The brains were snap frozen in dry […]"}, "[3]": {"conditions": "IV 1 mg/kg, 0.25 h, individual mice, 1 mg/kg"}, "[4]": {"conditions": "IV 1 mg/kg, 1 h, individual mice, 1 mg/kg"}, "[5]": {"conditions": "IV 1 mg/kg, 4 h, individual mice, 1 mg/kg"}, "[6]": {"conditions": "IV 3 mg/kg, 0.25 h, individual mice, 3 mg/kg"}, "[7]": {"conditions": "IV 3 mg/kg, 1 h, individual mice, 3 mg/kg"}, "[8]": {"conditions": "IV 3 mg/kg, 4 h, individual mice, 3 mg/kg"}},
  "note": "Where “and” joins values, the source holds several entries; their conditions need not be identical. Identical values can stand only once. Entries after “also recorded” stand apart in the source; their conditions may differ. Like-named read-outs stand apart in the source and are kept apart here.",
  "data": [
    {"smiles": "O=C(OCCN1CCN(c2cccc(C(F)(F)F)c2)CC1)c1ccccc1Nc1ccnc2cc(C(F)(F)F)ccc12", "note": "[antrafenine]", "values": [
      {"measurement": "mean plasma concentration", "setting": "[1]; 900 mg/day (approximately 12 mg/kg for a 75 kg adult), ref Berry et al, 1983", "value": 202, "unit": "nM"},
      {"measurement": "tolerability in humans", "setting": "[1]; 900 mg/day", "value": "well tolerated"},
      {"measurement": "mean circulating plasma levels", "setting": "[1]; patients with osteoarthritis", "value": 0.3, "unit": "µM"},
      {"measurement": "detection in brain at 24 h", "setting": "[2]; 24 h post-dose, either dose level (1 and 3 mg/kg IV)", "value": "not detected"},
      {"measurement": "B:P ratio Individual", "setting": "[2]; [3]", "value": "0.027 and 0.094 and 0.028"},
      {"measurement": "Plasma Concentration Individual", "setting": "[2]; [3]", "value": "233 nM and 344 nM"},
      {"measurement": "concentration at 4 h", "setting": "[2]; IV 1 mg/kg, 0.25 h, individual mice, 1 mg/kg, read-out: Brain Parenchyma Concentration Individual", "value": "8.5 nM and 22 nM and 9.5 nM"},
      {"measurement": "B:P ratio Individual", "setting": "[2]; [4]", "value": "0.087 and 0.046 and 0.096"},
      {"measurement": "Plasma Concentration Individual", "setting": "[2]; [4]", "value": "112 nM and 104 nM"},
      {"measurement": "concentration at 4 h", "setting": "[2]; IV 1 mg/kg, 1 h, individual mice, 1 mg/kg, read-out: Brain Parenchyma Concentration Individual", "value": "10.5 nM and 5.2 nM and 9.9 nM"},
      {"measurement": "B:P ratio Individual", "setting": "[2]; [5]", "value": "0.46 and 0.26 and 0.17"},
      {"measurement": "Plasma Concentration Individual", "setting": "[2]; [5]", "value": "14 nM and 12.9 nM"},
      {"measurement": "concentration at 4 h", "setting": "[2]; IV 1 mg/kg, 4 h, individual mice, 1 mg/kg, read-out: Brain Parenchyma Concentration Individual", "value": "5.7 nM and 3.7 nM and 2.2 nM"},
      {"measurement": "Plasma Concentration Individual", "setting": "[2]; IV 1 mg/kg, 24 h, individual mice, 1 mg/kg", "value": "1.6 nM and 1.8 nM"},
      {"measurement": "B:P ratio Individual", "setting": "[2]; [6]", "value": "0.038 and 0.048"},
      {"measurement": "Plasma Concentration Individual", "setting": "[2]; [6]", "value": "705 nM and 648 nM"},
      {"measurement": "concentration at 4 h", "setting": "[2]; IV 3 mg/kg, 0.25 h, individual mice, 3 mg/kg, read-out: Brain Parenchyma Concentration Individual", "value": "26.6 nM and 30.9 nM"},
      {"measurement": "B:P ratio Individual", "setting": "[2]; [7]", "value": "0.087 and 0.10"},
      {"measurement": "Plasma Concentration Individual", "setting": "[2]; [7]", "value": "208 nM and 349 nM"},
      {"measurement": "concentration at 4 h", "setting": "[2]; IV 3 mg/kg, 1 h, individual mice, 3 mg/kg, read-out: Brain Parenchyma Concentration Individual", "value": "40.2 nM and 18.2 nM and 35.8 nM"},
      {"measurement": "B:P ratio Individual", "setting": "[2]; [8]", "value": "0.30 and 0.25"},
      {"measurement": "Plasma Concentration Individual", "setting": "[2]; [8]", "value": "41.9 nM and 47.1 nM"},
      {"measurement": "concentration at 4 h", "setting": "[2]; IV 3 mg/kg, 4 h, individual mice, 3 mg/kg, read-out: Brain Parenchyma Concentration Individual", "value": "12.7 nM and 11.7 nM"},
      {"measurement": "Plasma Concentration Individual", "setting": "[2]; IV 3 mg/kg, 24 h, individual mice, 3 mg/kg", "value": "8.8 nM and 5.1 nM"},
      {"measurement": "adverse reactions / toxic effects in mice", "setting": "[2]; IV at 1 and 3 mg/kg", "value": "No adverse reactions or compound-related side effects were observed; also recorded: No toxic effects"},
      {"measurement": "apparent plasma clearance (in words)", "setting": "[2]; IV at 1 and 3 mg/kg", "value": "low"},
      {"measurement": "volume of distribution (in words)", "setting": "[2]; IV at 1 and 3 mg/kg", "value": "high"},
      {"measurement": "concentration at 4 h", "setting": "[2]; male, C57BL/6, mouse, brain parenchyma, iv, 3 mg/kg, IV 3 mg/kg, 4 h, individual mice, read-out: Brain Parenchyma Concentration Individual", "value": 17.3, "unit": "nM"},
      {"measurement": "concentration at 4 h", "setting": "[2]; male, C57BL/6, mouse, brain parenchyma, iv, 3 mg/kg, IV 3 mg/kg, 4 h, n = 3, read-out: Brain Parenchyma Concentration Mean ± SD", "value": 13.9, "unit": "nM"},
      {"measurement": "Kp at 0.25 h", "setting": "[2]; male, C57BL/6, mouse, brain, iv, 1 mg/kg, IV 1 mg/kg, 0.25 h, n = 3, read-out: B:P ratio Mean ± SD", "value": 0.05},
      {"measurement": "concentration at 0.25 h", "setting": "[2]; male, C57BL/6, mouse, brain, iv, 1 mg/kg, IV 1 mg/kg, 0.25 h, n = 3, read-out: Brain Parenchyma Concentration Mean ± SD", "value": 13.3, "unit": "nM"},
      {"measurement": "Kp at 1 h", "setting": "[2]; male, C57BL/6, mouse, brain, iv, 1 mg/kg, IV 1 mg/kg, 1 h, n = 3, read-out: B:P ratio Mean ± SD", "value": 0.076},
      {"measurement": "concentration at 1 h", "setting": "[2]; male, C57BL/6, mouse, brain, iv, 1 mg/kg, IV 1 mg/kg, 1 h, n = 3, read-out: Brain Parenchyma Concentration Mean ± SD", "value": 8.5, "unit": "nM"},
      {"measurement": "Kp at 4 h", "setting": "[2]; male, C57BL/6, mouse, brain, iv, 1 mg/kg, IV 1 mg/kg, 4 h, n = 3, read-out: B:P ratio Mean ± SD", "value": "0.3 ± 0.15"},
      {"measurement": "concentration at 4 h", "setting": "[2]; male, C57BL/6, mouse, brain, iv, 1 mg/kg, IV 1 mg/kg, 4 h, n = 3, read-out: Brain Parenchyma Concentration Mean ± SD", "value": 3.9, "unit": "nM"},
      {"measurement": "Kp at 0.25 h", "setting": "[2]; male, C57BL/6, mouse, brain, iv, 3 mg/kg, IV 3 mg/kg, 0.25 h, individual mice, read-out: B:P ratio Individual", "value": 0.042}
    ]}
  ]
}
